Holding throughout (assay): growth of human tumour cells (NCI), 48 h
In test [1] the test system is SF-295 CNS.
Test [2] relates to KM12 colon.
In test [3] the test system is NCI-H522 lung.
For test [4], the system named is SK-MEL-28 melanoma.
The test system of test [5] is TK-10 renal.
For test [6], the system named is OVCAR-3 ovarian.
The subject of test [7] is SNB-75 CNS.
Test [8] has as its system IGROV1 ovarian.
Test [9] deals with SF-539 CNS.
Test [10] has as its system NCI/ADR-RES ovarian.

SMILES strings stand for the structures.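 48-hour exposure; five concentrations; linearly interpolated endpoints. Abbreviation: GI50, concentration required for 50% inhibition of growth. The concentration for full growth arrest is given as TGI.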 Some results are limits rather than exact numbers.

On to `O=C(O)CNCc1c2ccccc2[n+]([O-])c2ccccc12`, for which the TGI in test [1], in test [2], in test [3], in test [4], in test [5] and in test [6] was more than 100 µM throughout. Moreover, the TGI in [7] and in [8] was more than 100 µM each time.

Turning to `CSc1sc(=S)sc1SC`, the TGI in [1] is more than 100 µM; in test [2] it was more than 100 µM; in test [9] it was more than 100 µM; in test [3], more than 100 µM; in test [4], more than 100 µM; in test [10], 54.3 µM. Moreover, the results for the TGI in test [6], in test [7] and in [8] were more than 100 µM, more than 90 µM and more than 100 µM, respectively.

Regarding `COc1cc2c3c(c4cc(OC)c(OC)cc4c2cc1OC)[C@H](O)[C@@H]1CCCN1C3`, the TGI in [1] is 1.64 µM; in test [2], 1.52 µM; in test [3], 1.55 µM; in test [4], more than 100 µM; in [10], 2.97 µM; in test [5], 1.55 µM. In addition, the TGI in test [6] was 1.18 µM; in [7] it was 0.252 µM.

On to `O=C(O)C(Br)Cc1ccc2c(c1)OCO2` (stereo not given), for which the TGI in [1], in [2], in [9], in test [3], in test [4] and in [6] was more than 100 µM throughout. In addition, the TGI in test [7] and in [8] was more than 100 µM in each case.

Take `COC(=O)c1nc2c3c(cccc3c1C(=O)OC)Nc1ccccc1-2`: the TGI was more than 100 µM in test [1]; more than 100 µM in test [2]; more than 100 µM in [9]; 41.5 µM in test [3]; more than 100 µM in test [4]; more than 100 µM in [10]. For the same compound, the TGI in [5], in test [6], in test [7] and in test [8] was more than 100 µM each time.

For the compound `CC1(C)N=C(N)N=C(N)N1c1cccc(OCc2cccc([N+](=O)[O-])c2)c1`, the TGI in test [1] was more than 100 µM; in test [2], more than 100 µM; in [9], more than 79.4 µM; in test [3], more than 100 µM; in test [4] it was more than 100 µM; in [10], more than 100 µM. Further, the TGI in [5] is more than 81.8 µM; in [6], more than 73.9 µM; in test [7], more than 100 µM; in test [8] it was more than 100 µM.

Take `C=CC(c1ccccc1)C1(O)c2cccc(O)c2C(=O)c2c(O)cccc21` (stereo not given): the TGI was 40.4 µM in test [1]; 40.9 µM in test [2]; 84.5 µM in [9]; 30.1 µM in test [3]; 41.4 µM in test [4]; 31.2 µM in test [10]. The TGI in [5] came out at 38.6 µM; in test [6], 38.9 µM; in test [7], 41.8 µM; in test [8], 32.6 µM.

Consider `CCCCCCCCCCCCCCCCOCCCOP(=O)(O)C1CCCN(O)C1=O` (stereo not given), for which the GI50 was 2.44 µM in test [1]; 0.572 µM in test [2]; 3.02 µM in test [9]; 2.76 µM in [3]; 3.46 µM in test [4]; 4.02 µM in [10]. In addition, the GI50 was 0.738 µM in test [5], 2.77 µM in test [6], 2.13 µM in test [7] and 0.609 µM in test [8]. The TGI was 11.3 µM in [1]; 11.3 µM in test [2]; 11 µM in [9]; 14.8 µM in [3]; 44.3 µM in test [4]; 25.6 µM in test [10]. Also, the TGI in test [5] was 23.4 µM; in test [6], 16.4 µM; in test [7], 15 µM; in test [8], 4.77 µM.

`S=C1NN=C2C(=C3CCCC4C5CCCCC5N2C34)N1` (stereo not given): the TGI in [1], in test [2], in test [3], in [4], in [10] and in test [5] was more than 100 µM in each case. Moreover, the TGI in test [6] and in [8] was more than 100 µM in each case.

With `O=C1c2ccccc2C(=O)c2c(O)c(O)cc(O)c21`, the TGI is more than 100 µM in [1]; more than 100 µM in test [2]; 66 µM in [9]; 96.1 µM in test [3]; more than 100 µM in test [4]; more than 100 µM in [5]. Besides, the TGI was 64.3 µM in test [6], more than 100 µM in test [7] and more than 100 µM in test [8].

In the case of `C/C(=C\COP(=O)(O)OP(=O)(O)O)CC/C=C(\C)CNc1ccc([N+](=O)[O-])cc1`, the TGI in test [1], in test [2], in [9], in test [3], in [4] and in [10] was more than 100 µM in each case. The TGI in [5], in test [6], in [7] and in [8] was more than 100 µM throughout.

As for `COc1ccc2c(c1)/C(=C\c1cccc(/C=C3/C(=O)Nc4ccc(OC)cc43)n1)C(=O)N2`, the TGI in test [1] is 30.3 µM; in test [2], 4.64 µM; in test [9], 5.7 µM; in test [3] it was 6.9 µM; in [10] it was more than 58.8 µM; in test [5], 6.57 µM. Further, the TGI in test [6] was 5.38 µM; in [7], more than 100 µM; in test [8], more than 100 µM. Also, the GI50 in test [8] is 2.2 µM.

(Values after PubChem BioAssay (NCI).)
